What all share (assay type): functional
The target of one assay is T1, Proline--tRNA ligase (Plasmodium falciparum (isolate 3D7), UniProt Q8I5R7).
T1 sequence (Q8I5R7 whole entry): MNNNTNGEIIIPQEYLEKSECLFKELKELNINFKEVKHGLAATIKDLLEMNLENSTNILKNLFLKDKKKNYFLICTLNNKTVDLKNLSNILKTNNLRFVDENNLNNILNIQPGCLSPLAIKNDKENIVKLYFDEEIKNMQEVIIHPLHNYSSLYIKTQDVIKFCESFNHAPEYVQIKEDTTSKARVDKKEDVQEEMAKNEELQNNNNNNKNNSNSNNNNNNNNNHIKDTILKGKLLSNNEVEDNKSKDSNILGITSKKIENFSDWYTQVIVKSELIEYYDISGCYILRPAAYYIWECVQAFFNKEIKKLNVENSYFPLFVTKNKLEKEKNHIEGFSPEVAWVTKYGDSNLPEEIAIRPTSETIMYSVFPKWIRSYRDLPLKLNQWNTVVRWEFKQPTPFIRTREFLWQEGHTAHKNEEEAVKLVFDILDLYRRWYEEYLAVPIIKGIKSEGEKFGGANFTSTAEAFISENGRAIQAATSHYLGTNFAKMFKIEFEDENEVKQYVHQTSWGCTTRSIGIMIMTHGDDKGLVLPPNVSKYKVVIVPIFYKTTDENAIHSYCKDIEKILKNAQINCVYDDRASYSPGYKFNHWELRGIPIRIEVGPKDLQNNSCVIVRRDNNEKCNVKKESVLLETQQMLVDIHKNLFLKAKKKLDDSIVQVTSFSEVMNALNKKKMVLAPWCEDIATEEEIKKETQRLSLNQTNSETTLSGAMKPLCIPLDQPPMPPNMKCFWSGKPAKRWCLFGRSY
Put plainly: MMV: ProRS recombinant Plasmodium falciparum Prolyl-tRNA-synthetase, assay with yeast tRNA, ATP, and proline and 3 uM MMV malaria box compound, assay read out with kinase glo as % inhibition.

Assay [1] has as its target T2, Calcium-dependent protein kinase 4 (Plasmodium falciparum (isolate 3D7), UniProt Q8IBS5).
T2 sequence (Q8IBS5 whole entry): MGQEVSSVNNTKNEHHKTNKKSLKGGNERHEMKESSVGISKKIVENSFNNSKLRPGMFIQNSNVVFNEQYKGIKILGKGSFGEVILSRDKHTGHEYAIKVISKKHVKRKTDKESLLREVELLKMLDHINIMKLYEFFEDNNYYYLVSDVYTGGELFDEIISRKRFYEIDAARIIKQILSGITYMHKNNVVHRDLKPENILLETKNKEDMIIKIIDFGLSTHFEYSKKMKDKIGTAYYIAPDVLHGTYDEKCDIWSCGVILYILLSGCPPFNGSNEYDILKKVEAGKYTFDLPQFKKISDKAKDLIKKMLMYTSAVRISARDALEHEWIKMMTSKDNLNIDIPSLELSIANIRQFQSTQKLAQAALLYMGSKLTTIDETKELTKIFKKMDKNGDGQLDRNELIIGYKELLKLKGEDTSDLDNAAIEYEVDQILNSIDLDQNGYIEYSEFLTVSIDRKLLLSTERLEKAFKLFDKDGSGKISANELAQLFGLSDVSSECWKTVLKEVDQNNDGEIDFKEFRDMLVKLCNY
As to the kind of experiment: MMV: CDPK4 Protein kinase inhibition assay using recombinant PfCDPK4, syntide2 peptide substrate, ATP and KinaseGlo to measure % inhibition at 1 uM MMV box compound.

Assay [2] concerns the target T3, Mitogen-activated protein kinase (Plasmodium falciparum, UniProt Q25917).
T3 sequence (Q25917 whole entry): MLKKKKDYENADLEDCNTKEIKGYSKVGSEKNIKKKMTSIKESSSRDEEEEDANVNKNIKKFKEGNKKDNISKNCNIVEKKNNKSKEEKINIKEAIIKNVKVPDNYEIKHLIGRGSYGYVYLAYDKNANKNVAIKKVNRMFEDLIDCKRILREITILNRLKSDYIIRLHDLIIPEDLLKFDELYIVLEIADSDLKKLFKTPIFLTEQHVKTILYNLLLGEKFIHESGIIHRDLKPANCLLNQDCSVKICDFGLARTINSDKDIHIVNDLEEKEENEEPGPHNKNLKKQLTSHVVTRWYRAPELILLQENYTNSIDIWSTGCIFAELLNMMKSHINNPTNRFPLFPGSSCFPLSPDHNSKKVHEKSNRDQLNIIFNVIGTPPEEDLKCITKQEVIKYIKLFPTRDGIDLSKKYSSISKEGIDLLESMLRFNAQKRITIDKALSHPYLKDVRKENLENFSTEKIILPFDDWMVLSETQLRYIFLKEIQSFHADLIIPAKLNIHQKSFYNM
Put plainly: Final concentrations were 1 uM ATP, 0.5 mM DTT, 1 mM MgCl2, 0.5 mg/mL BSA, and 10 ug/ml MAP2 in a buffer of 50 mM HEPES (pH 7.0). 0.5 mg/mL histone III-S served as the substrate (13); 100 uM AMP-PNP, an ATP analog, was used as a control inhibitor. Incubation time was 4 hours.

For assay [3], the target named is T4, Cdk-related protein kinase 6 (Plasmodium falciparum, UniProt O77239).
T4 sequence (O77239 whole entry): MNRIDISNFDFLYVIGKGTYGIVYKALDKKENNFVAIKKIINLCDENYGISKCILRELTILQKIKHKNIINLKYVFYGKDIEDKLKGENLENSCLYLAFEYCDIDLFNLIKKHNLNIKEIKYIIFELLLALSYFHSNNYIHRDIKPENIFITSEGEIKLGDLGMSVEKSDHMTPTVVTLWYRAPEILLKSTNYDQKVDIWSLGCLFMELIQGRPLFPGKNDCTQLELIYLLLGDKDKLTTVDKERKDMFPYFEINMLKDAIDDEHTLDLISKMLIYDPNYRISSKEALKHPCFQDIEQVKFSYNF
Put plainly: Final concentrations were 1.5 uM ATP, 5 mM MnCl2, and 15 ug/ml PK6 in a buffer of 100 mM Tris-HCl (pH 7.5). 50 ug/mL MBP was provided as the substrate; 10 uM staurosporine was used as a control inhibitor. Incubation time was 3 hours and 40 minutes.The catalytic activity of each kinase was considered proportional to ATP consumed, as determined from measurements of residual [ATP] with the luciferase-based reagent Kinase-Glo (Promega) following incubation. Luminescence (proportional to residual [ATP]) was measured on the plate readers FLx800 (BioTek Instruments, Winooski, VT, USA) and MicroBeta2. (In Kinase-Glo more light means more ATP remaining.)

For a further assay, the target named is Lysine--tRNA ligase (Plasmodium falciparum (isolate 3D7), UniProt Q8IDJ8). Put plainly: MMV: KRS recombinant Plasmodium falciparum Lysyl-tRNA-synthetase, assay with yeast tRNA, ATP, and lysine and 3 uM MMV malaria box compound, assay read out with kinase glo as % inhibition.
Chain of Lysine--tRNA ligase (Q8IDJ8 whole entry): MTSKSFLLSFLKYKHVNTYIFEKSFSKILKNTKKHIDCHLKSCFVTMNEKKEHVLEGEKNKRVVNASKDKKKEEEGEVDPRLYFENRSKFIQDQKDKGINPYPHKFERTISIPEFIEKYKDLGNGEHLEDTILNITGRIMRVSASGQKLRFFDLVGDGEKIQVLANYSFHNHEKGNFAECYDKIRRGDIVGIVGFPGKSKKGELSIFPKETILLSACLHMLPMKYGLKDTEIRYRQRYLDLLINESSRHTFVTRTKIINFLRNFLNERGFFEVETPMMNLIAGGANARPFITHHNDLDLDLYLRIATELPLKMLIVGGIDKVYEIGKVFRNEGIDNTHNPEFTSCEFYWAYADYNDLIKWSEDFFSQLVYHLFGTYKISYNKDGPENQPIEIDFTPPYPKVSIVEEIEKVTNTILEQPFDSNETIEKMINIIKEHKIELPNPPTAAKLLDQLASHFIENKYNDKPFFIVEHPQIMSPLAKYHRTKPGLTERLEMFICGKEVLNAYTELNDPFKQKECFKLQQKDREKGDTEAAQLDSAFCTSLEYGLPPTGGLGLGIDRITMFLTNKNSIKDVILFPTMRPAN
The target of assay [4] is T5, Putative uncharacterized protein pk7 (Plasmodium falciparum, UniProt O96214).
T5 sequence (O96214 whole entry): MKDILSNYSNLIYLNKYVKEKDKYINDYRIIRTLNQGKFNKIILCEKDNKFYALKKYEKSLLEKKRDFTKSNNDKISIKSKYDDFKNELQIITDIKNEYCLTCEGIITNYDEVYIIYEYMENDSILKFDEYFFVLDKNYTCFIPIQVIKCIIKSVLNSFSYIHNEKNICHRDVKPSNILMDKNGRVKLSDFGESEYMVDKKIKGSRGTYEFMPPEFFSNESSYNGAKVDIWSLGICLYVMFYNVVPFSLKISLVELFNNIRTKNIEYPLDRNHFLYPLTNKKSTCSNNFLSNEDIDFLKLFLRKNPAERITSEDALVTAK
Put plainly: Final concentrations were 1 uM ATP, 2 mM DTT, 20 mM MgCl2, 2 mM MnCl2, 0.01% BSA, and 6 ug/ml PK7, in a buffer of 20 mM Tris-HCl (pH 7.5). The enzyme itself was the only substrate present (since autophosphorylation occurs); 100 uM 1NA-PP1 was used as a control inhibitor. Incubation time was 3 hours.

The target of assay [5] is Calcium-dependent protein kinase 1 (Plasmodium falciparum, UniProt P62344). Put plainly: MMV: CDPK1 Protein kinase inhibition assay using recombinant PfCDPK1, syntide 2 peptide substrate, ATP and KinaseGlo to measure % inhibition at 1 uM MMV box compound.
Chain of Calcium-dependent protein kinase 1 (P62344 whole entry): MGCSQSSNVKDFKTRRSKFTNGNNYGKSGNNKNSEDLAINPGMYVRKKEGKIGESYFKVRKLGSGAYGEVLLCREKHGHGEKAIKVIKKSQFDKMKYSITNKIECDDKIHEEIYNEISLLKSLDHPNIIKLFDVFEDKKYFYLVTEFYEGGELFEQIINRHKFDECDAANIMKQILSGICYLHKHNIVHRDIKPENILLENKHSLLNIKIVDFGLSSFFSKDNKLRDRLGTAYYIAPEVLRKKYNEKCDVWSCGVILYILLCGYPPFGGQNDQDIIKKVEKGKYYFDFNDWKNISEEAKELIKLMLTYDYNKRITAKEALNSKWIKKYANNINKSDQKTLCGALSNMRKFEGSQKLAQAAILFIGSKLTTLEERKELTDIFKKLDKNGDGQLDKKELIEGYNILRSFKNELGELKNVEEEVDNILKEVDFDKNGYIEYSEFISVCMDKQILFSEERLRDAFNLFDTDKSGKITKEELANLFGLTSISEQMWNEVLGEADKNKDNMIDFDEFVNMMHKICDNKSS

One may read the IC50 as the concentration at which inhibition is half-maximal. On to `CCC(c1ccccc1)c1nn2c(-c3cccs3)nnc2s1` (stereo not given), for which the IC50 at Proline--tRNA ligase was over 2.5 µM; in assay [1] it was over 1 µM; in assay [2], over 1 µM; in assay [3], over 1 µM; on Lysine--tRNA ligase, over 2.5 µM; in assay [4], over 1 µM. In addition, the IC50 in assay [5] is over 1 µM.
As to `COc1ccc(C(=O)Nc2ccc(Cl)cc2C(=O)Nc2ccncc2)cc1`, the IC50 on Proline--tRNA ligase is over 2.5 µM; in assay [1], over 1 µM; in assay [2], over 1 µM; in assay [3] it was over 1 µM; on Lysine--tRNA ligase, over 2.5 µM; in assay [4] it was over 1 µM. In assay [5], the IC50 is over 1 µM.
As to `COCCN(C(=O)Cc1cccs1)C(C(=O)NCc1ccc(OC)cc1)c1ccc(C(C)C)cc1` (stereo not given), the IC50 on Proline--tRNA ligase was over 2.5 µM; in assay [1] it was over 1 µM; in assay [2] it was over 1 µM; in assay [3], over 1 µM; at Lysine--tRNA ligase, over 2.5 µM; in assay [4], over 1 µM. The half-inhibitory concentration (IC50) in assay [5] is over 1 µM.
In the case of `CCOc1ccc(-c2nonc2NC(=O)c2cccc(C)c2)cc1OCC`, the IC50 was over 2.5 µM on Proline--tRNA ligase; over 1 µM in assay [1]; over 1 µM in assay [2]; over 1 µM in assay [3]; over 2.5 µM on Lysine--tRNA ligase; over 1 µM in assay [4]. In addition, the IC50 in assay [5] is over 1 µM.
Turning to `O=C1c2ccccc2-c2nnc(-c3ccc(Br)cc3)cc21`, the IC50 on Proline--tRNA ligase was over 2.5 µM; in assay [1] it was over 1 µM; in assay [2], over 1 µM; in assay [3] it was over 1 µM; at Lysine--tRNA ligase, over 2.5 µM; in assay [4], over 1 µM. For the same compound, the IC50 in assay [5] was over 1 µM.
As for `CCN1CCCC1CNc1[nH]cnc2c3cc(Cl)ccc3nc1-2` (stereo not given), the IC50 at Proline--tRNA ligase is over 2.5 µM; in assay [1], over 1 µM; in assay [2], over 1 µM; in assay [3], over 1 µM; on Lysine--tRNA ligase it was over 2.5 µM; in assay [4] it was over 1 µM. In addition, the IC50 in assay [5] was over 1 µM.
For the compound `CCOc1cc(CNC(C)C(O)c2ccccc2)cc(Cl)c1OCC` (stereo not given), the IC50 on Proline--tRNA ligase was over 2.5 µM; in assay [1], over 1 µM; in assay [2], over 1 µM; in assay [3], over 1 µM; at Lysine--tRNA ligase, over 2.5 µM; in assay [4] it was over 1 µM. Also, in assay [5], the IC50 was over 1 µM.
As to `CN1CCN(c2nc(Nc3ccc(O)cc3)nc3ccccc23)CC1`, the IC50 on Proline--tRNA ligase is over 2.5 µM; in assay [1], over 1 µM; in assay [2], over 1 µM; in assay [3] it was over 1 µM; on Lysine--tRNA ligase it was over 2.5 µM; in assay [4], over 1 µM. Also, the IC50 in assay [5] was over 1 µM.
For the compound `COc1ccc(C2Sc3ccccc3N=C3C2=C(O)c2ccccc23)cc1` (stereo not given), the IC50 on Proline--tRNA ligase was over 2.5 µM; in assay [1], over 1 µM; in assay [2] it was over 1 µM; in assay [3] it was over 1 µM; on Lysine--tRNA ligase it was over 2.5 µM; in assay [4], over 1 µM. Besides, the IC50 in assay [5] was over 1 µM.
Regarding `COc1ccc2sc(N(Cc3cccnc3)C(=O)c3ccc(C#N)cc3)nc2c1`, the IC50 at Proline--tRNA ligase is over 2.5 µM; in assay [1], over 1 µM; in assay [2], over 1 µM; in assay [3] it was over 1 µM; at Lysine--tRNA ligase it was over 2.5 µM; in assay [4], over 1 µM. Besides, in assay [5], the IC50 is over 1 µM.
Take `COCCNCC(O)Cn1c2ccc(Cl)cc2c2cc(Cl)ccc21` (stereo not given): the IC50 was over 2.5 µM on Proline--tRNA ligase; over 1 µM in assay [1]; over 1 µM in assay [2]; over 1 µM in assay [3]; over 2.5 µM on Lysine--tRNA ligase; over 1 µM in assay [4]. In addition, in assay [5], the IC50 was over 1 µM.
Consider `OC(CNC1CCCCC1)Cn1c2ccccc2c2ccccc21` (stereo not given), for which the IC50 is over 2.5 µM on Proline--tRNA ligase; over 1 µM in assay [1]; over 1 µM in assay [2]; over 1 µM in assay [3]; over 2.5 µM on Lysine--tRNA ligase; over 1 µM in assay [4]. For the same compound, the IC50 in assay [5] is over 1 µM.
Regarding `COc1ccc(-c2cn3c(C(=O)Nc4ccccc4Cl)c(-c4ccccc4)c4c3n2CCCC4)cc1`, the IC50 at Proline--tRNA ligase is over 2.5 µM; in assay [1] it was over 1 µM; in assay [2], over 1 µM; in assay [3] it was over 1 µM; at Lysine--tRNA ligase, over 2.5 µM; in assay [4], over 1 µM. In addition, the IC50 in assay [5] was over 1 µM.
With `CCOc1ccc(Nc2c3ccccc3nc3ccccc23)cc1`, the IC50 at Proline--tRNA ligase is over 2.5 µM; in assay [1] it was over 1 µM; in assay [2], over 1 µM; in assay [3], over 1 µM; at Lysine--tRNA ligase, over 2.5 µM; in assay [4], over 1 µM. In assay [5], the IC50 was over 1 µM.
Consider `Cc1cccc(-n2ncc3c(O)nc(-n4nc(C)cc4NC(=O)c4cc5ccccc5o4)nc32)c1`, for which the IC50 at Proline--tRNA ligase was over 2.5 µM; in assay [1] it was over 1 µM; in assay [2], over 1 µM; in assay [3], over 1 µM; on Lysine--tRNA ligase it was over 2.5 µM; in assay [4], over 1 µM. Besides, the IC50 in assay [5] is over 1 µM.

For the origin of these results see ChEMBL document CHEMBL3301562, “MMV Box screening against Plasmodium falciparum protein kinases and aminoacyl tRNA synthetases”.
